Experimental data from US9182664B2, “Polymerizable fluorine-containing sulfonate, fluorine-containing sulfonate resin, resist composition and pattern-forming method using same” (Central Glass Company, Limited, priority 2010, dated 2015).
Where two headings read alike, the source gives them in different places.

Test: Solubility of polymerizable fluorine-containing sulfonic acid onium salts (polymerizable monomers) in PGMEA
Format: physicochemical
From the text: The structures and abbreviations of the polymerizable monomers used in this reference example are indicated below. Among others, the monomers PAG-1, PAG-2 and PAG-3 are the polymerizable fluorine-containing sulfonic acid onium salts according to the present invention. [table]

[1] = amount of polymerizable monomer in 100 g of PGMEA

Solubility (g/100 g) [1] [g/100 g]	Structure (SMILES)	Solubility (g/100 g)
11	C=C(C)C(=O)OCC(=O)OCC(F)(F)S(=O)(=O)O [PAG-C2, reference compound]	–
–	C=C(C)C(=O)OC(OCC(F)(F)S(=O)(=O)O)(C(=O)OCC)C(F)(F)F (centres unmarked) [PAG-1, Triphenylsulfonium 2-(1-Ethoxycarbonyl-1-methacryloyloxy-2,2,2-trifluoroethoxy)-1,1-difluoroethanesulfonate]	45
–	C=C(C)C(=O)OC(OCCC(F)(F)C(F)(F)S(=O)(=O)O)(C(=O)OCC)C(F)(F)F (centres unmarked) [PAG-2, Triphenylsulfonium 4-(1-Ethoxycarbonyl-1-methacryloyloxy-2,2,2-trifluoroethoxy)-1,1,2,2-tetrafluorobutanesulfonate]	55
10	C=C(C)C(=O)OCC(F)(F)S(=O)(=O)O [PAG-C1, reference compound]	–
–	C=C(C)C(=O)OC(OCCCCC(F)(F)C(F)(F)S(=O)(=O)O)(C(=O)OCC)C(F)(F)F (centres unmarked) [PAG-3, Triphenylsulfonium 6-(1-Ethoxycarbonyl-1-methacryloyloxy-2,2,2-trifluoroethoxy)-1,1,2,2-tetrafluorohexanesulfonate]	90
